Patent US6844353B2, “Fungicidal properties of sampangine and its analogs to agriculturally important fungal plant pathogens” (The United States of America as represented by the …, priority 2003, dated 2005)
Where two headings read alike, the source gives them in different places.

Legend:
Assay in all cases: 96-well microtiter plate assay, fungal growth inhibition
F. oxysporum = format: cell-based, Fusarium oxysporum; settings: for Percent inhibition−Percent Stimulation±SEM: F. oxysporum; for inhibition at 0.3 µM / inhibition at 3 µM / inhibition at 30 µM: Fusarium oxysporum, read-out: Percent inhibition−Percent Stimulation±SEM
Text: (§1) Pathogen production. Isolates of Colletotrichum acutatum Simmonds, Colletotrichum fragariae Brooks, and Colletotrichum gloeosporioides (Penz.) Penz. & Sacc. in Penz. were obtained from B. J. Smith, USDA, ARS, Small Fruit Research Station, Poplarville, Miss. Colletotrichum fragariae (isolate CF63), C. acutatum (isolate CAGoff), and C. gloeosporioides (isolate CG162) were used for all pathogen and bioautography studies. Isolate CF63 is one of the most virulent isolates at infecting strawberry plants and inducing both crown and fruit rot (Smith and Black, 1990). CF63, CAGoff, and CG162 were used as standard test isolates because of our extensive knowledge of these isolates and their known fungicide sensitivity profiles in both bioautography and microtiter formats. The three Colletotrichum species were isolated from strawberry (Fragaria x ananassa Duchesne). Botrytis cinerea Pers.: Fr, was isolated from commercial grape (Vitis vinifera L.) and Fusarium oxysporum Schlechtend: Fr from orchid (Cynoches sp.). Phomopsis viticola (Sacc.) and P. obscurans (Ellis & Everh.) Sutton were from Mike A. Ellis, Ohio State University, Wooster, Ohio. Fungi were grown on potato-dextrose agar (PDA, Difco, Detroit, Mich.) in 9 cm petri dishes and incubated in a growth chamber at 24±2° C. and under cool-white fluorescent lights ([…]·m^−2·sec^−1 light) with 12 hour photoperiod.
(§2) Inoculum preparation. Conidia were harvested from 7-10 day-old cultures by flooding plates with 5 mL of sterile distilled water and dislodging conidia by softly brushing the colonies with an L-shaped glass rod. Conidial suspensions were filtered through sterile miracloth (Calbiochem-Novabiochem Corp., La Jolla, Calif.) to remove mycelia. Conidia concentrations were determined photometrically, from a standard curve based on the percent of transmittance (% T) at 625 nm and suspensions were then adjusted with sterile distilled water to a concentration of 1.0×10^6 conidia/mL.
(§3) Microtiter assay. A standardized 96-well microtiter plate assay developed for discovery of natural product fungicidal agents was used to evaluate naturally occurring antifungal agents from Macaranga monanara. A 96-well microtiter assay was used to determine sensitivity of B. cinerea, C. acutatum, C. fragariae, C. gloeosporioides, F. oxysporum, Phomopsis viticola, and P. obscurans to the various antifungal agents in comparison with known fungicidal standards. Vinclozolin, captan, and thiabendazole, which represent three different modes of action, were used as standards in this experiment. Each fungus was challenged in a dose-response format using test compounds where the final treatment concentrations were 0.3, 3.0 and 30.0 μM. Microtiter plates (Nunc MicroWell, untreated; Roskilde, Denmark) were covered with a plastic lid and incubated in a growth chamber as described previously for fungal growth. Growth was then evaluated by measuring absorbance of each well at 620 nm using a microplate photometer (Packard Spectra Count, Packard Instrument Co., Downers Grove, Ill.). Microtiter plates (Nunc MicroWell, untreated; Roskilde, Denmark) were covered with a plastic lid and incubated in a growth chamber at 24±1° C. and 12 hour photoperiod under 60±5 μmol light. Growth was then evaluated by measuring absorbance of each well at 620 nm using a microplate photometer (Packard Spectra Count, Packard Instrument Co., Downers Grove, Ill.).
(§4) Microbioassy Experimental Design. Chemical sensitivity each of B. cinerea, C. acutatum, C. fragariae, C. gloeosporiodes, F. oxysporum, Phomopsis viticola, and P. obscurans was evaluated using 96-well plate microbioassay format. Each chemical was evaluated in duplicate at each dose (0.3, 3.0 and 30.0 μM). […]

C. fragariae = format: cell-based, Colletotrichum fragariae; settings: for Percent inhibition−Percent Stimulation±SEM: C. fragariae; for inhibition at 0.3 µM / inhibition at 3 µM / inhibition at 30 µM: Colletotrichum fragariae, read-out: Percent inhibition−Percent Stimulation±SEM
Text: as §1, §2, §3, §4

C. gloeosporioides = format: cell-based, Colletotrichum gloeosporioides; settings: for Percent inhibition−Percent Stimulation±SEM: C. gloeosporioides; for inhibition at 0.3 µM / inhibition at 3 µM / inhibition at 30 µM: Colletotrichum gloeosporioides, read-out: Percent inhibition−Percent Stimulation±SEM
Text: as §1, §2, §3, §4

B. cinerea = format: cell-based, Botrytis cinerea; settings: for Percent inhibition−Percent Stimulation±SEM: B. cinerea; for inhibition at 0.3 µM / inhibition at 3 µM / inhibition at 30 µM: Botrytis cinerea, read-out: Percent inhibition−Percent Stimulation±SEM
Text: as §1, §2, §3, §4

C. acutatum = format: cell-based, Colletotrichum acutatum; settings: for Percent inhibition−Percent Stimulation±SEM: C. acutatum; for inhibition at 0.3 µM / inhibition at 3 µM / inhibition at 30 µM: Colletotrichum acutatum, read-out: Percent inhibition−Percent Stimulation±SEM
Text: as §1, §2, §3, §4

With `CO/N=C(/C(=O)OC)c1ccccc1COc1ccccc1C` [BAS 490] the “Percent inhibition−Percent Stimulation±SEM” value (F. oxysporum; 0.3 μM, 48 hrs) was −82.3 ± 3.0%, the “Percent inhibition−Percent Stimulation±SEM” value (F. oxysporum; 0.3 μM, 72 hrs) was −30.3 ± 6.9% and the “Percent inhibition−Percent Stimulation±SEM” value (F. oxysporum; 3.0 μM, 48 hrs) was −92.7 ± 0.6%. For the same molecule, the “Percent inhibition−Percent Stimulation±SEM” value (F. oxysporum; 3.0 μM, 72 hrs) was −65.5 ± 1.6%, the “Percent inhibition−Percent Stimulation±SEM” value (F. oxysporum; 30 μM, 48 hrs) was −94.7 ± 0.5% and the “Percent inhibition−Percent Stimulation±SEM” value (F. oxysporum; 30 μM, 72 hrs) was −69.5 ± 2.0%. The “Percent inhibition−Percent Stimulation±SEM” value (C. fragariae; 0.3 μM, 48 hrs) was −68.8 ± 7.1%, the “Percent inhibition−Percent Stimulation±SEM” value (C. fragariae; 0.3 μM, 72 hrs) was −35.6 ± 5.6% and the “Percent inhibition−Percent Stimulation±SEM” value (C. fragariae; 3.0 μM, 48 hrs) was −86.4 ± 3.5%. The “Percent inhibition−Percent Stimulation±SEM” value (C. fragariae; 3.0 μM, 72 hrs) was −71.9 ± 3.5%, the “Percent inhibition−Percent Stimulation±SEM” value (C. fragariae; 30 μM, 48 hrs) was −91.5 ± 1.7% and the “Percent inhibition−Percent Stimulation±SEM” value (C. fragariae; 30 μM, 72 hrs) was −80.4 ± 1.4%. The “Percent inhibition−Percent Stimulation±SEM” value (C. gloeosporioides; 0.3 μM, 48 hrs) was −83.3 ± 3.2%, the “Percent inhibition−Percent Stimulation±SEM” value (C. gloeosporioides; 0.3 μM, 72 hrs) was −58.7 ± 5.0% and the “Percent inhibition−Percent Stimulation±SEM” value (C. gloeosporioides; 3.0 μM, 48 hrs) was −92.4 ± 1.5%. The “Percent inhibition−Percent Stimulation±SEM” value (C. gloeosporioides; 3.0 μM, 72 hrs) was −82.6 ± 3.4%, the “Percent inhibition−Percent Stimulation±SEM” value (C. gloeosporioides; 30 μM, 48 hrs) was −97.5 ± 1.0% and the “Percent inhibition−Percent Stimulation±SEM” value (C. gloeosporioides; 30 μM, 72 hrs) was −89.7 ± 1.9%. For the same molecule, the “Percent inhibition−Percent Stimulation±SEM” value (B. cinerea; 0.3 μM, 48 hrs) was −71.3 ± 28.0%, the “Percent inhibition−Percent Stimulation±SEM” value (B. cinerea; 0.3 μM, 72 hrs) was −66.6 ± 21.5% and the “Percent inhibition−Percent Stimulation±SEM” value (B. cinerea; 3.0 μM, 48 hrs) was −24.0 ± 32.0%. The “Percent inhibition−Percent Stimulation±SEM” value (B. cinerea; 3.0 μM, 72 hrs) was −37.2 ± 20.2%, the “Percent inhibition−Percent Stimulation±SEM” value (B. cinerea; 30 μM, 48 hrs) was −60.1 ± 32.9% and the “Percent inhibition−Percent Stimulation±SEM” value (B. cinerea; 30 μM, 72 hrs) was −40.9 ± 17.6%. The “Percent inhibition−Percent Stimulation±SEM” value (C. acutatum; 0.3 μM, 48 hrs) was −63.9 ± 3.8%, the “Percent inhibition−Percent Stimulation±SEM” value (C. acutatum; 0.3 μM, 72 hrs) was −17.8 ± 3.5% and the “Percent inhibition−Percent Stimulation±SEM” value (C. acutatum; 3.0 μM, 48 hrs) was −93.1 ± 0.6%. The “Percent inhibition−Percent Stimulation±SEM” value (C. acutatum; 3.0 μM, 72 hrs) was 14.7 ± 2.5%, the “Percent inhibition−Percent Stimulation±SEM” value (C. acutatum; 30 μM, 48 hrs) was −95.1 ± 0.7% and the “Percent inhibition−Percent Stimulation±SEM” value (C. acutatum; 30 μM, 72 hrs) was −69.9 ± 2.6%.
In the case of `CCCCNC(=O)n1c(NC(=O)OC)nc2ccccc21` [Benomyl], the inhibition at 0.3 µM (F. oxysporum; 48 h) is reported as 3.3 ± 4.7%, the inhibition at 3 µM (F. oxysporum; 48 h) is reported as 12 ± 3% and the inhibition at 30 µM (F. oxysporum; 48 h) is reported as 86.3 ± 1.6%. It also gave an inhibition at 0.3 µM (F. oxysporum; 72 h) of -1.6 ± 3.2%, an inhibition at 3 µM (F. oxysporum; 72 h) of 0.8 ± 3.5% and an inhibition at 30 µM (F. oxysporum; 72 h) of 77.2 ± 2.3%. The inhibition at 0.3 µM (C. fragariae; 48 h) was 51.5 ± 5%, the inhibition at 3 µM (C. fragariae; 48 h) was 89.6 ± 1.2% and the inhibition at 30 µM (C. fragariae; 48 h) was 92.4 ± 1.1%. For the same molecule, the inhibition at 0.3 µM (C. fragariae; 72 h) was 36.8 ± 4.4%, the inhibition at 3 µM (C. fragariae; 72 h) was 92.7 ± 1% and the inhibition at 30 µM (C. fragariae; 72 h) was 94.3 ± 0.9%. It also gave an inhibition at 0.3 µM (C. gloeosporioides; 48 h) of 47.5 ± 9.2%, an inhibition at 3 µM (C. gloeosporioides; 48 h) of 84.2 ± 3.8% and an inhibition at 30 µM (C. gloeosporioides; 48 h) of 82.4 ± 4%. The inhibition at 0.3 µM (C. gloeosporioides; 72 h) was 16.1 ± 6.5%, the inhibition at 3 µM (C. gloeosporioides; 72 h) was 59.9 ± 9.6% and the inhibition at 30 µM (C. gloeosporioides; 72 h) was 44.8 ± 8.6%. For the same molecule, the inhibition at 0.3 µM (B. cinerea; 48 h) was 50 ± 26.9%, the inhibition at 3 µM (B. cinerea; 48 h) was 21.6 ± 27.3% and the inhibition at 30 µM (B. cinerea; 48 h) was 39.9 ± 20.4%. It also gave an inhibition at 0.3 µM (B. cinerea; 72 h) of 71.2 ± 25.1%, an inhibition at 3 µM (B. cinerea; 72 h) of 40.9 ± 22% and an inhibition at 30 µM (B. cinerea; 72 h) of 47.3 ± 14.9%. It also gave an inhibition at 0.3 µM (C. acutatum; 48 h) of 24.6 ± 6.1%, an inhibition at 3 µM (C. acutatum; 48 h) of 20.3 ± 4.8% and an inhibition at 30 µM (C. acutatum; 48 h) of 16.6 ± 6.3%. For the same molecule, the inhibition at 0.3 µM (C. acutatum; 72 h) was -7.7 ± 6.6%, the inhibition at 3 µM (C. acutatum; 72 h) was 47.7 ± 4.1% and the inhibition at 30 µM (C. acutatum; 72 h) was -15.2 ± 3.7%.
